# Test results from patent US20040087561A1, “Treatment of sexual dysfunction” (priority 2000, published 2004).
# Read-outs that look alike come from different tables or passages of the source.
# How the values were obtained:
# human NMB receptor (BB1) = target: T1, human NMB receptor (BB1) (Homo sapiens, UniProt P28336); assay: BB1 binding assay ([125I][Tyr4]bombesin, CHO-K1 cell membranes)
# T1 construct: expressed in transfected cells; host or cells: CHO-K1
# Description: In the following experiments, measurement of BB1 and BB2 binding was as follows. CHO-K1 cells stably expressing cloned human NMB (for (BB1 assay) and GRP receptors (for BB2 assay) were routinely grown in Ham's F12 culture medium supplemented with 10% foetal calf serum and 2 mM glutamine. For binding experiments, cells were harvested by trypsinization, and stored frozen at −70° C. in Ham's F12 culture medium containing 5% DMSO until required. On the day of use, cells were thawed rapidly, diluted with an excess of culture medium, and centrifuged for 5 minutes at 2000 g. Cells were resuspended in 50 mM Tris-HCl assay buffer (pH 7.4 at 21° C., containing 0.02% BSA, 40 μg/mL bacitracin, 2 μg/mL chymostatin, 4 μg/mL leupeptin, and 2 μM phosphoramidon), counted, and polytronned (setting 5, 10 sec) before centrifuging for 10 minutes at 28,000 g. The final pellet was resuspended in assay buffer to a final cell concentration of 1.5×10^5/mL. For binding assays, 200 μL aliquots of membranes were incubated with [^125I][Tyr^4]bombesin (<0.1 nM) in the presence and absence of test compounds (final assay volume 250 μL) for 60 minutes and 90 minutes for NMB and GRP receptors, respectively. Nonspecific binding was defined by 1 μM bombesin. Assays were terminated by rapid filtration under vacuum onto Whatman GF/C filters presoaked in 0.2% PEI for >2 hours, and washed 50 mM Tris-HC (pH 6.9 at 21° C.; 6×1 mL). Radioactivity bound was determined using a gamma counter.
# All competition data was analysed using nonlinear regression utilizing iterative curve-plotting procedures in Prism® (GraphPad Software Inc., San Diego, USA). IC50 values were corrected to Ki values using the Cheng-Prusoff equation (Cheng Y., PrusoffW. H., Biochem. Pharmacol. 22: 3099-3108, 1973).
# [1] = system: ovariectomised female Sprague Dawley rats; assay: Female rat sexual receptivity (lordosis quotient); assay type: in vivo; conditions: for lordosis quotient (LQ) compared to LQ before administration: quinelorane 6.25 μg/kg s.c., 90 min
# Description: (§1) Ovariectomised adult female Sprague Dawley rats (180-200 g, from Charles River) were housed in groups of 6 in a reversed lighting system of 12 h light:dark (lights off 7.00-19.00 h). Two weeks after ovariectomy they were used for sexual activity tests. The experiments started at least 5 h into the dark period.
# Compound (1) was dissolved in 100% β-cyclodextrin and then diluted with saline to a final solution of 50% 2-hydroxypropyl-β-cyclodextrin. It was administered intraperitoneally (i.p.) at a dose of 10 mg/kg, in a dosing volume of 1 ml/kg. Quinelorane (6.25 μg/kg) was dissolved in water and administered s.c. as positive control. Forty eight hours before testing, ovariectomised female rats (as described above), were primed with 5 μg oestradiol benzoate dissolved in corn oil and injected subcutaneously. […] The females were placed with a series of vigorous male rats and subjected to 10 mounts.
# The lordotic response of the animal was recorded and expressed as a percentage of the mounts (i.e. lordosis quotient, LQ), as previously described. Animals showing LQ<20 were considered non-receptive and were included in the study. Each rat was tested prior to administration of the compound and then tested similarly post-injection. The pre-treatment times were 1 h for Compound (1) and vehicle (50% β-cyclodextrin, i.p.) or 90 min for quinelorane.
# The above compound was dissolved in PEG200 vehicle and administered orally. Quinelorane dihydrochloride (LY 163,502, 6.25 μg/kg) was dissolved in water and administered subcutaneously (s.c.), as a positive control. Both compounds were administered in a 1 ml/kg volume.
# Forty eight hours before tests, the animals were primed with 5 μg oestradiol benzoate (Sigma Chemical. Co. Ltd., UK) dissolved in corn oil and injected subcutaneously. The females were placed with a series of vigorous male rats and subjected to 10 mounts. The lordotic response of the animal was recorded and expressed as a percentage of the mounts (i.e. lordosis quotient, LQ). […] Animals showing higher LQ were not included in the study. Each rat was tested prior to administration of the compound and then tested similarly at 1 h and 90 min post-injection of the above compound or quinelorane respectively.
# [2] = system: ovariectomised female Sprague Dawley rats; assay: Female rat sexual proceptivity (time investigating male vs female stimulus); assay type: in vivo; conditions: for MED, percentage of time spent investigating the male stimulus (proceptivity) / percentage of time spent investigating the male stimulus (proceptivity): 1 h before test
# Description: as §1
# Tests were carried out in a circular arena of 90 cm diameter, surrounded by a 30 cm high wall. Two small cages with wire-mesh front (15×15 cm) are fixed into the wall such that the front of the cage is <> with the wall and the 2 cages are opposite each other. They contained two stimuli animals: an intact sexually experienced male and a receptive female (ovariectomised, primed with 5 μg oestradiol benzoate dissolved in corn oil and injected subcutaneously 48 hours before the test and with 0.5 mg of progesterone four hours before the test). Sexually naive test and control animals were used. Forty eight hours before the tests, both the test and control animals were primed with 5 μg oestradiol benzoate. For animals used as positive controls, progesterone (0.5 mg/0.1 ml) was dissolved in corn oil and administered subcutaneously (s.c.), 4 h before the test. Test and control animals were introduced one at a time for 10 minute periods into the arena. During the 10 min test, the time that the test or positive control animal spent investigating each stimulus animal was noted. The arena was thoroughly cleaned between animals. The position of the male/female stimuli boxes was randomised between animals, in order to avoid place preference. The difference in the percentage of time spent investigating the male minus the female stimuli was calculated, out of the total time spent investigating stimuli animals.
# Compound (1) was dissolved in 100% β-cyclodextrin and then diluted with saline to a final solution of 50% 2-hydroxypropyl-β-cyclodextrin. It was administered intraperitoneally (i.p.) at doses of 3 and 10 mg/kg, in a dosing volume of 1 ml/kg, 1 h before tests. Progesterone (0.5 mg/0.1 ml) was dissolved in corn oil and administered subcutaneously (s.c.), 4 h before test, as a positive control.
# Ovariectomised adult female Sprague Dawley rats (180-200 g) were housed in groups of 5 in a reversed lighting system of 12 h light:dark (lights off 5.00-17.00 h). They were used for the experiments at least two weeks after ovariectomy. Forty eight hours before tests, the animals were primed with oestradiol benzoate (5 μg/0.1 ml in corn oil, s.c.). On day 1, progesterone (0.5 mg/0.1 ml, in corn oil, s.c.) was administered to one of the groups 4 h before tests, as a positive control. Compound (1) (15 mg/kg, i.p.) was administered in 50% 2-hydroxypropyl-β-cyclodextrin, 1 h before tests. The test lasted 10 minutes and was carried out as described before. The difference in the percentage of time spent investigating the male minus the female stimuli was calculated, out of the total time spent investigating stimuli animals. Animals were submitted to a test on day 1 and on day 15. From day 2 to 14 the Compound (1) group received a daily injection of the compound (15 mg/kg, i.p.), while both the vehicle and the progesterone groups received an injection of vehicle. On day 15 the test took place again, as described for day 1.
# Ovariectomised female rats (Sprague Dawley, obtained from Charles River, UK) were stereotaxically implanted (coordinates 0.89 mm behind Bregma, 1.3 mm lateral and 2.5 mm vertical) with stainless steel cannulae (6 mm long, O.D. 0.75 mm), held in place with dental cement. Animals were housed in groups of three and returned to a reversed lighting system of 12 h light:dark (lights off 5.00-17.00 h). Correct placement of the cannulae was assessed post-mortem. Rats were used for tests two weeks after ovariectomy (one week after cannulation). The experiments started at least 5 h into the dark period. […]
# Sprague Dawley male rats = assay: Sexual behaviour of sexually dysfunctional (fluoxetine-treated) male rats; assay type: in vivo, rat; conditions: fluoxetine 20 mg/kg i.p. 3 days (vs vehicle+vehicle); day 4 Compound (1) 15 mg/kg or yohimbine 2 mg/kg i.p. 1 h before test (vs fluoxetine+vehicle)
# Description: Sprague Dawley male rats (Charles River, UK) were kept, 4 rats per cage, in a reversed lighting regime (12:12 hours, lights off at 5.00 h), with free access to food and water. The rats were pre-selected by being presented with a receptive female at […], i.e. every third day (haying 2 clear days between presentations) until completing 6-7 trials of baseline determination. The animals showing consistently vigorous behaviour (ejaculatory latencies <300 s) were chosen for further experiments. Animals were treated for 3 consecutive days with either vehicle (water) or fluoxetine (20 mg/kg, i.p., in a 2 ml/kg dosing volume). On the fourth day, the animals treated with water received vehicle (veh+veh) and the animals treated with fluoxetine received one of the three following treatments: Compound (1) (15 mg/kg, dissolved in 50% 2-hydroxypropyl-β-cyclodextrin in saline), vehicle (cyclodextrine), or yohimbine (2 mg/kg dissolved in water). All treatments were administered i.p. in a 1 ml/kg volume, 1 h before tests.
# For all the sexual behaviour tests, the males were placed in an observation arena (50-60 cm diameter), starting 5 hours into the dark cycle and observed under red illumination. Three to 4 minutes after placing the male in the arena, a receptive female (ovariectomised, bearing a 7 mm Silastic implant of oestradiol benzoate) was introduced to the arena and the following parameters noted: Mount Latency: time (in seconds) taken between introduction of female and first mount. A maximum time of 15 minutes (900 seconds) was allowed, and the test terminated if no mounts were recorded within that time (FIG. 16), Ejaculation Latency: time (in seconds) taken from first intromission to ejaculation. A maximum time of 30 minutes (1800 seconds) was given, and the test terminated if ejaculation was not achieved in that time (FIG. 17), Percentage of males achieving ejaculation within 30 minutes was calculated (FIG. 18).
# A one-way ANOVA followed by Dunnett's t test was used to compare the fluoxetine+vehicle group and other groups for mount and ejaculatory latencies. Percentage of animals ejaculating was analysed using a Chi-square test followed by Fisher's test. (*: P<0.05, **: P<0.01, ***: P<0.001; n=15-19).
# [3] = Example 31, Compound (2) 10-100 mg/kg oral in PEG200, 1 h
# [4] = oral, 30-100 mg/kg in PEG 200 vehicle
# [5] = p.o., 3-30 mg/kg in 0.5% methyl cellulose
# T1 sequence (P28336 whole entry): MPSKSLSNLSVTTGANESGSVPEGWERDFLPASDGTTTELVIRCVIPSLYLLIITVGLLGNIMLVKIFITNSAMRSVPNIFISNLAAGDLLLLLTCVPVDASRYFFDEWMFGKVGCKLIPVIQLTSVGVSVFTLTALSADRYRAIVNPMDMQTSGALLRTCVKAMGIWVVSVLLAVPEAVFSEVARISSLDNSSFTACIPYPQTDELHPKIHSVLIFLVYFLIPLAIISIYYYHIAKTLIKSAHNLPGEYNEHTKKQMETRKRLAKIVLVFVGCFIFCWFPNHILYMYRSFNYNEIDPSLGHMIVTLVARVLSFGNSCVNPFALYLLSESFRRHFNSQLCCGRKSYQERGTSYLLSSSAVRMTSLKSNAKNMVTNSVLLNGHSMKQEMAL
compound,measurement,setting,value
C[C@@](Cc1c[nH]c2ccccc12)(NS(=O)(=O)c1cc(Cl)sc1Cl)C(=O)NCC1(c2ccccn2)CCCCC1 [Example 157],IC50,human NMB receptor (BB1),214 nM
"Cc1ccccc1CC(=O)N[C@@](C)(Cc1c[nH]c2ccccc12)C(=O)NCC1(c2ccccn2)CCCCC1 [Example 51, (S)-3-(1H-Indol-3-yl)-2-methyl-N-(1-pyridin-2-yl-cyclohexylmethyl)-2-(2-o-tolyl-ethanoylamino)-propionamide]",IC50,human NMB receptor (BB1); Table 3,944 nM
"CCCN1CCC[C@@H]2Cc3nc(N)ncc3C[C@H]21 [quinelorane, reference compound]",lordosis quotient (LQ) compared to LQ before administration,"[1]; Example 2, Compound (1) 10 mg/kg i.p., 1 h",significantly (P<0.01) increased the LQ
same,lordosis quotient (LQ) compared to LQ before administration,[1]; [3],significantly (P<0.01) increased the LQ
"COc1ccc(C2(CNC(=O)[C@](C)(Cc3c[nH]c4ccccc34)Nc3nc(-c4ccc([N+](=O)[O-])cc4)co3)CCCCC2)nc1 [Example 9, (S)-3-(1H-Indol-3-yl)-N-[1-(5-methoxy-pridin-2-yl)-cyclohexylmethyl]-2-methyl-2-[4-(4-nitro-phenyl)-oxazol-2-ylamino]-propionamide]",increase in potency compared to the oral results in the PEG200 vehicle,"[2]; MED in 0.5% methyl cellulose vs MED in PEG200, p.o.",10 fold
same,"MED, percentage of time spent investigating the male stimulus (proceptivity)",[2]; [4],100 mg/kg
same,percentage of time spent investigating the male stimulus (proceptivity),[2]; [4],increased the percentage of time spent investigating the male stimulus
same,"MED, percentage of time spent investigating the male stimulus (proceptivity)",[2]; [5],10 mg/kg
same,percentage of time spent investigating the male stimulus (proceptivity),[2]; [5],increased the percentage of time spent investigating the male stimulus
same,lordosis quotient (LQ) compared to LQ before administration,[1]; [3],dose-dependently (10-100 mg/kg) increased the LQ
same,"MED, increase of lordosis quotient (LQ)","[1]; Example 31, single oral administration 10-100 mg/kg in PEG200, 1 h after administration",100 mg/kg
"COC(=O)[C@@H]1[C@H]2C[C@H]3c4[nH]c5ccccc5c4CCN3C[C@@H]2CC[C@@H]1O [Yohimbine, yohimbine]",Ejaculation latency,Sprague Dawley male rats,did not reach significance
same,Mount latency,Sprague Dawley male rats,did not reach significance
same,percentage of animals ejaculating (within 30 minutes),Sprague Dawley male rats,did not reach significance
C-Dimethylamino-N—{(S)-2-(1H-indol-3-yl)-1-methyl-1-[(1-pyridin-2-yl-cyclohexyl-methyl)-carbamoyl]-ethyl}-benzamide [Example 48],IC50,human NMB receptor (BB1); Table 3,716 nM
